Measurements published in PubChem BioAssay AID2060624 (Molecular Pharmacology Branch, DTP, NCI, 2025).
Values joined by “and” are separate entries in the source; they are usually repeats but may differ in a detail not shown here. Equal values may be shown once.

Test system: 217524-143-R1-J4-PDC spheroids with HUVEC/MSC, viability
Assay: Anticancer human tumor 217524-143-R1-J4-PDC patient-derived pancreatic carcinoma cell line growth inhibition [CLK]
Details: for viability, T/C: stronger effect = lower value
Outline: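 Multi-cell-type spheroids combined patient-derived tumor cells with HUVEC endothelial cells and human mesenchymal stem cells. Paired agents were dosed in half-log steps down from about clinical Cmax, or from 10 microM where Cmax was unknown.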

[1] = curve of first compound, second compound 0.0316 µM
[2] = curve of first compound, second compound 0.1 µM
[3] = curve of first compound, second compound 0.316 µM
[4] = curve of first compound, second compound 1 µM
[5] = curve of first compound, second compound 3.16 µM
[6] = curve of first compound, second compound 10 µM
[7] = second compound 0.0316 µM, first compound 0.0316 µM
[8] = second compound 0.0316 µM, first compound 0.1 µM
[9] = second compound 0.0316 µM, first compound 0.316 µM
[10] = second compound 0.0316 µM, first compound 1 µM
[11] = second compound 0.0316 µM, first compound 3.16 µM
[12] = second compound 0.0316 µM, first compound 10 µM
[13] = second compound 0.1 µM, first compound 0.0316 µM
[14] = second compound 0.1 µM, first compound 0.1 µM
[15] = second compound 0.1 µM, first compound 0.316 µM
[16] = second compound 0.1 µM, first compound 1 µM
[17] = second compound 0.1 µM, first compound 3.16 µM
[18] = second compound 0.1 µM, first compound 10 µM
[19] = second compound 0.316 µM, first compound 0.0316 µM
[20] = second compound 0.316 µM, first compound 0.1 µM
[21] = second compound 0.316 µM, first compound 0.316 µM
[22] = second compound 0.316 µM, first compound 1 µM
[23] = second compound 0.316 µM, first compound 3.16 µM
[24] = second compound 0.316 µM, first compound 10 µM
[25] = second compound 1 µM, first compound 0.0316 µM
[26] = second compound 1 µM, first compound 0.1 µM
[27] = second compound 1 µM, first compound 0.316 µM
[28] = second compound 1 µM, first compound 1 µM
[29] = second compound 1 µM, first compound 3.16 µM
[30] = second compound 1 µM, first compound 10 µM
[31] = second compound 3.16 µM, first compound 0.0316 µM
[32] = second compound 3.16 µM, first compound 0.1 µM
[33] = second compound 3.16 µM, first compound 0.316 µM
[34] = second compound 3.16 µM, first compound 1 µM
[35] = second compound 3.16 µM, first compound 3.16 µM
[36] = second compound 3.16 µM, first compound 10 µM
[37] = second compound 10 µM, first compound 0.0316 µM
[38] = second compound 10 µM, first compound 0.1 µM
[39] = second compound 10 µM, first compound 0.316 µM
[40] = second compound 10 µM, first compound 1 µM
[41] = second compound 10 µM, first compound 3.16 µM
[42] = second compound 10 µM, first compound 10 µM
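Note: spheroids exposed to agents for seven days before reading.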
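Throughout, for viability, T/C: 100% = DMSO vehicle control viability.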

COc1ccc([C@@H](O)c2cc(-c3ncnc4cc(N5CCOCC5)ccc34)c(F)cc2Cl)nn1 + CN1CCN(c2cc(C(=O)Nc3cc4cc(-c5cnn(C)c5)ccc4cn3)ccn2)CC1
IC50 [1]: 285 nM
IC50 [2]: < 31.6 nM
IC50 [3]: < 31.6 nM
IC50 [4]: < 31.6 nM
IC50 [5]: < 31.6 nM
IC50 [6]: < 31.6 nM
viability, T/C [7]: 70.4%
viability, T/C [8]: 59.8%
viability, T/C [9]: 46.9%
viability, T/C [10]: 38.5%
viability, T/C [11]: 26.1%
viability, T/C [12]: 10.6%
viability, T/C [13]: 39.6%
viability, T/C [14]: 50.7%
viability, T/C [15]: 29.8%
viability, T/C [16]: 24.4%
viability, T/C [17]: 16.2%
viability, T/C [18]: 10%
viability, T/C [19]: 18.1%
viability, T/C [20]: 18.4%
viability, T/C [21]: 15%
viability, T/C [22]: 13.4%
viability, T/C [23]: 10.7%
viability, T/C [24]: 6.07%
viability, T/C [25]: 1.28%
viability, T/C [26]: 0.91%
viability, T/C [27]: 1.1%
viability, T/C [28]: 0.93%
viability, T/C [29]: 0.91%
viability, T/C [30]: 0.91%
viability, T/C [31]: 0.52%
viability, T/C [32]: 0.54%
viability, T/C [33]: 0.73%
viability, T/C [34]: 0.44%
viability, T/C [35]: 1.02%
viability, T/C [36]: 1.29%
viability, T/C [37]: 0.08%
viability, T/C [38]: 0.12%
viability, T/C [39]: 0.21%
viability, T/C [40]: 0.18%
viability, T/C [41]: 0.22%
viability, T/C [42]: 0.36%

Nc1ccccc1NC(=O)c1ccc(CNC(=O)OCc2cccnc2)cc1
viability, T/C (compound 0.0316 µM): 112% and 117%
viability, T/C (compound 0.1 µM): 102% and 93.9%
viability, T/C (compound 0.316 µM): 97.4% and 104%
viability, T/C (compound 1 µM): 89.9% and 98.1%
viability, T/C (compound 3.16 µM): 61.6% and 70.6%
viability, T/C (compound 10 µM): 31.1% and 34.7%
IC50 (curve of compound): 5090 nM and 6150 nM

CC1COCCN1c1cc(C2(S(C)(=N)=O)CC2)nc(-c2ccnc3[nH]ccc23)n1 (centres undefined) + CNC(=O)c1ccc(Nc2nc(OC3CCCC3)c3c(-c4ccc5nc(C)oc5c4)c[nH]c3n2)c(OC)c1
IC50 [1]: 1970 nM
IC50 [2]: < 31.6 nM
IC50 [3]: < 31.6 nM
IC50 [4]: < 31.6 nM
IC50 [5]: < 31.6 nM
IC50 [6]: < 31.6 nM
viability, T/C [7]: 85.7%
viability, T/C [8]: 93.5%
viability, T/C [9]: 71.4%
viability, T/C [10]: 76.3%
viability, T/C [11]: 31.8%
viability, T/C [12]: 22.5%
viability, T/C [13]: 36.8%
viability, T/C [14]: 43.5%
viability, T/C [15]: 37.8%
viability, T/C [16]: 29.2%
viability, T/C [17]: 26.5%
viability, T/C [18]: 19.7%
viability, T/C [19]: 42.2%
viability, T/C [20]: 32.4%
viability, T/C [21]: 34.4%
viability, T/C [22]: 28.1%
viability, T/C [23]: 20.1%
viability, T/C [24]: 15.1%
viability, T/C [25]: 29.9%
viability, T/C [26]: 27.7%
viability, T/C [27]: 28.9%
viability, T/C [28]: 18.1%
viability, T/C [29]: 16.3%
viability, T/C [30]: 12.3%
viability, T/C [31]: 26.7%
viability, T/C [32]: 26%
viability, T/C [33]: 24.7%
viability, T/C [34]: 20.2%
viability, T/C [35]: 10.9%
viability, T/C [36]: 9.73%
viability, T/C [37]: 28.1%
viability, T/C [38]: 26.4%
viability, T/C [39]: 21.7%
viability, T/C [40]: 17.6%
viability, T/C [41]: 12.9%
viability, T/C [42]: 8.77%

C#Cc1c(F)ccc2cc(O)cc(-c3ncc4c(N5CC6CCC(C5)N6)nc(OCC56CCCN5CC(F)C6)nc4c3F)c12 (centres undefined) + CNC(=O)c1ccc(Nc2nc(OC3CCCC3)c3c(-c4ccc5nc(C)oc5c4)c[nH]c3n2)c(OC)c1
IC50 [1]: > 10000 nM
IC50 [2]: < 31.6 nM
IC50 [3]: < 31.6 nM
IC50 [4]: < 31.6 nM
IC50 [5]: < 31.6 nM
IC50 [6]: < 31.6 nM
viability, T/C [7]: 84.3%
viability, T/C [8]: 98.2%
viability, T/C [9]: 90.8%
viability, T/C [10]: 101%
viability, T/C [11]: 89.4%
viability, T/C [12]: 69%
viability, T/C [13]: 47.5%
viability, T/C [14]: 39.2%
viability, T/C [15]: 53.6%
viability, T/C [16]: 42.4%
viability, T/C [17]: 44.5%
viability, T/C [18]: 30.8%
viability, T/C [19]: 38.5%
viability, T/C [20]: 50.3%
viability, T/C [21]: 38.2%
viability, T/C [22]: 40.9%
viability, T/C [23]: 38.7%
viability, T/C [24]: 24.3%
viability, T/C [25]: 33.1%
viability, T/C [26]: 30%
viability, T/C [27]: 26.1%
viability, T/C [28]: 35.5%
viability, T/C [29]: 24.5%
viability, T/C [30]: 18.9%
viability, T/C [31]: 29.1%
viability, T/C [32]: 29.5%
viability, T/C [33]: 32.6%
viability, T/C [34]: 26.7%
viability, T/C [35]: 26.2%
viability, T/C [36]: 19.4%
viability, T/C [37]: 26.3%
viability, T/C [38]: 24.2%
viability, T/C [39]: 27.8%
viability, T/C [40]: 23.4%
viability, T/C [41]: 24.9%
viability, T/C [42]: 19.7%

COc1ccc([C@@H](O)c2cc(-c3ncnc4cc(N5CCOCC5)ccc34)c(F)cc2Cl)nn1
viability, T/C (compound 0.0316 µM): 100% and 86.5%
viability, T/C (compound 0.1 µM): 68.5% and 86.3%
viability, T/C (compound 0.316 µM): 58.5% and 56.8%
viability, T/C (compound 1 µM): 52.6% and 42.2%
viability, T/C (compound 3.16 µM): 34.3% and 27.2%
viability, T/C (compound 10 µM): 10.5% and 11.7%
IC50 (curve of compound): 756 nM and 632 nM

CC1(C)CCC(CN2CCN(c3ccc(C(=O)NS(=O)(=O)c4ccc(NCC5CCOCC5)c([N+](=O)[O-])c4)c(Oc4cnc5[nH]ccc5c4)c3)CC2)=C(c2ccc(Cl)cc2)C1 + CN1CCN(c2cc(C(=O)Nc3cc4cc(-c5cnn(C)c5)ccc4cn3)ccn2)CC1
IC50 [1]: 5020 nM
IC50 [2]: 3820 nM
IC50 [3]: < 31.6 nM
IC50 [4]: < 31.6 nM
IC50 [5]: < 31.6 nM
IC50 [6]: < 31.6 nM
viability, T/C [7]: 83.2%
viability, T/C [8]: 68.9%
viability, T/C [9]: 89.4%
viability, T/C [10]: 88.4%
viability, T/C [11]: 77.1%
viability, T/C [12]: 9.4%
viability, T/C [13]: 55.5%
viability, T/C [14]: 55%
viability, T/C [15]: 55.1%
viability, T/C [16]: 65.7%
viability, T/C [17]: 60.2%
viability, T/C [18]: 7.83%
viability, T/C [19]: 19.1%
viability, T/C [20]: 20.4%
viability, T/C [21]: 21.5%
viability, T/C [22]: 22.8%
viability, T/C [23]: 20.9%
viability, T/C [24]: 6.29%
viability, T/C [25]: 2.02%
viability, T/C [26]: 1.96%
viability, T/C [27]: 1.65%
viability, T/C [28]: 1.7%
viability, T/C [29]: 1.3%
viability, T/C [30]: 1.35%
viability, T/C [31]: 0.59%
viability, T/C [32]: 0.61%
viability, T/C [33]: 0.76%
viability, T/C [34]: 0.45%
viability, T/C [35]: 0.49%
viability, T/C [36]: 0.25%
viability, T/C [37]: 0.16%
viability, T/C [38]: 0.16%
viability, T/C [39]: 0.19%
viability, T/C [40]: 0.26%
viability, T/C [41]: 0.24%
viability, T/C [42]: 0.17%

CCCS(=O)(=O)Nc1ccc(F)c(C(=O)c2c[nH]c3ncc(-c4ccc(Cl)cc4)cc23)c1F + CN1CCN(c2cc(C(=O)Nc3cc4cc(-c5cnn(C)c5)ccc4cn3)ccn2)CC1
IC50 [1]: > 10000 nM
IC50 [2]: > 10000 nM
IC50 [3]: < 31.6 nM
IC50 [4]: < 31.6 nM
IC50 [5]: < 31.6 nM
IC50 [6]: < 31.6 nM
viability, T/C [7]: 86.3%
viability, T/C [8]: 69.2%
viability, T/C [9]: 107%
viability, T/C [10]: 124%
viability, T/C [11]: 135%
viability, T/C [12]: 61.4%
viability, T/C [13]: 61.4%
viability, T/C [14]: 67.7%
viability, T/C [15]: 62.4%
viability, T/C [16]: 78.8%
viability, T/C [17]: 100%
viability, T/C [18]: 44.4%
viability, T/C [19]: 26.1%
viability, T/C [20]: 26.4%
viability, T/C [21]: 33.3%
viability, T/C [22]: 32.9%
viability, T/C [23]: 34.9%
viability, T/C [24]: 19.9%
viability, T/C [25]: 2.26%
viability, T/C [26]: 2.37%
viability, T/C [27]: 2.29%
viability, T/C [28]: 3.2%
viability, T/C [29]: 2.09%
viability, T/C [30]: 2.01%
viability, T/C [31]: 0.92%
viability, T/C [32]: 0.96%
viability, T/C [33]: 1.2%
viability, T/C [34]: 1.02%
viability, T/C [35]: 1.17%
viability, T/C [36]: 0.97%
viability, T/C [37]: 0.29%
viability, T/C [38]: 0.32%
viability, T/C [39]: 0.65%
viability, T/C [40]: 0.3%
viability, T/C [41]: 1.04%
viability, T/C [42]: 1.34%
